In article PMC8879095, “UHPLC-MS/MS Analysis of Antibiotics Transfer and Concentrations in Porcine Oral Fluid after Intramuscular Application” (Pharmaceuticals, 2022):
Like-named read-outs stand apart in the source and are kept apart here.

Legend:
[1] = parameters: method as in PMID 14651045, PMID 14651045; conditions: cited from earlier work
[2] = Antibiotic concentrations in porcine oral fluid after intramuscular application (UHPLC-MS/MS); assay type: in vivo; conditions: pigs, i.m.; for concentration in oral fluid at withdrawal period: at the end of the withdrawal period for tissues of each drug (Table 3); for time for which the analyte was present / quantified in oral fluid: sampling for 30 days
Method: All animals were born in the sow farm (8000 DanBred sows) located in Northern Poland, after crossing ♀(♂Landrace × ♀Yorskshire) × ♂Duroc. Piglets were weaned after 4 weeks of lactation with an average weight of 6 kg and then moved to the weaner stable (23,000 weaners). After the next 7 weeks, animals were transported to the 9000-places fattening farm with an average body weight of 28 kg, where the trial was performed. All farms in the aforementioned three-phase model used weekly batches and an all-in all-out system. Specialist veterinary and production management care were provided in each location.
For the purpose of the study, 240 immunologically castrated boars were divided into 8 groups, 30 animals in each pen. For the control group, 30 pigs were used in separate pens. Their initial body weight was between 40 and 60 kg. Pigs were housed at 20–25 °C. Fatteners were fed ad libitum with antimicrobial-free water and feed provided by feeders throughout the study. Before the experiment, water and feed were checked for antimicrobials, and no antimicrobial treatments were administered to these pigs before. All animals in one pen were treated due to the same health issue using disposable needles and the same drug and dosage. Pens were separated from each other with concrete walls. The drugs and dosage administered to each experimental group with an indication of withdrawal period for tissues are listed in Table 3. The oral fluid samples were collected using three cotton ropes (70 cm length with 1 cm diameter) in each pen suspended separately for 25 min on the front wall of the pen with bottoms at the pigs’ shoulder height, away from water and feed.
The research material was one pooled sample of oral fluid from 10 pigs, in triplicate, per pen. Ropes were removed immediately after collection. The first oral fluid sample was collected 24 h after the first injection. The collection of each subsequent sample took place at the same time (11:30 A.M.) for 35 consecutive days. Additionally, oral fluid samples were collected from pigs not treated with any antibiotics. Oral fluid from each pen was pooled into one 50-mL Falcon plastic tube and centrifuged at 9447× rcf for 15 min. Centrifuged material was transferred to a 15 mL plastic tube and frozen at −20 °C until analysis.
Before the analysis, the oral fluid samples were centrifuged at 9447× rcf. Next, an aliquot (1 mL) of oral fluid was placed into a 2 mL polypropylene centrifuge tube, and the 30 µL of the internal standard at the concentration of 2 µg/mL was added. For the extraction of analysed antibiotics, 600 µL of 0.5% formic acid was added, vortexed for 30 s and centrifuged for 10 min at 9447× rcf. Then, the supernatant was filtered through a […] PVDF filter into an amber glass vial before chromatographic analysis.
The mass spectrometry detection was operated in the positive ESI mode with multiple reaction monitoring (MRM).

[3] = parameters: method as in PMID 28042939; conditions: 21st day, i.m., cited from earlier work
[4] = organic acid; cited from earlier work
[5] = male, (Landrace × Yorkshire) × Duroc crossbred (DanBred sows), pig, intramuscular, oral fluid, time 1 d (24 h after first injection), treatment period, read-out: Avarage Concentrations in oral fluid
[6] = male, (Landrace × Yorkshire) × Duroc crossbred (DanBred sows), pig, intramuscular, oral fluid, treatment period, read-out: Avarage Concentrations in oral fluid
[7] = male, (Landrace × Yorkshire) × Duroc crossbred (DanBred sows), pig, intramuscular, oral fluid, posttreatment, read-out: Avarage Concentrations in oral fluid
[8] = oral fluid, time 1 d (24 h after first injection), treatment period
[9] = oral fluid, time 9 d, posttreatment
[10] = oral fluid, time 10 d, posttreatment
[11] = oral fluid, time 11 d, posttreatment
[12] = oral fluid, time 12 d, posttreatment
[13] = oral fluid, time 13 d, posttreatment
[14] = oral fluid, time 14 d, posttreatment
[15] = oral fluid, time 15 d, posttreatment
[16] = oral fluid, time 16 d, posttreatment
[17] = oral fluid, time 17 d, posttreatment
[18] = oral fluid, time 18 d, posttreatment
[19] = oral fluid, time 19 d, posttreatment
[20] = oral fluid, time 20 d, posttreatment
[21] = oral fluid, time 21 d, posttreatment
[22] = oral fluid, time 22 d, posttreatment
[23] = oral fluid, time 23 d, posttreatment
[24] = oral fluid, time 24 d, posttreatment
[25] = oral fluid, time 25 d, posttreatment
[26] = oral fluid, time 26 d, posttreatment
[27] = oral fluid, time 27 d, posttreatment
[28] = oral fluid, time 28 d, posttreatment
[29] = oral fluid, time 29 d, posttreatment
[30] = oral fluid, time 30 d, posttreatment

For `CC1(C)S[C@@H]2[C@H](NC(=O)[C@H](N)c3ccc(O)cc3)C(=O)N2[C@H]1C(=O)O` [AMX, amoxicillin], the “binding degree to plasma proteins” value [1] is listed as “≈ 25%”, the concentration at 1 d [2, 5] is listed as 11.3 ng/mL and the concentration at 2 d [2, 6] is listed as 15.2 ± 2.3 ng/mL. It also gave a concentration at 3 d [2, 6] of 14.6 ± 1.8 ng/mL, a concentration at 4 d [2, 7] of 11.4 ± 1.4 ng/mL and a concentration at 5 d [2, 7] of 11.2 ± 1.6 ng/mL. For the same compound, the “concentration in oral fluid at withdrawal period” value ([2]; oral fluid) was “below the limit of quantification”, the “time for which the analyte was present / quantified in oral fluid” value ([2]; oral fluid) was 5 days and the “Avarage Concentrations in oral fluid” value [2, 8] was 11.3 ± 1.6 µg/L. For the same compound, the “Avarage Concentrations in oral fluid” value ([2]; oral fluid, time 6 d, posttreatment) was “<LOQ”, the “Avarage Concentrations in oral fluid” value ([2]; oral fluid, time 7 d, posttreatment) was “<LOQ” and the “Avarage Concentrations in oral fluid” value ([2]; oral fluid, time 8 d, posttreatment) was “<LOQ”. For the same compound, the “Avarage Concentrations in oral fluid” value [2, 9] was “<LOQ”, the “Avarage Concentrations in oral fluid” value [2, 10] was “<LOQ” and the “Avarage Concentrations in oral fluid” value [2, 11] was “<LOQ *”. The “Avarage Concentrations in oral fluid” value [2, 12] was “<LOQ”, the “Avarage Concentrations in oral fluid” value [2, 13] was “<LOQ” and the “Avarage Concentrations in oral fluid” value [2, 14] was “<LOQ”. For the same compound, the “Avarage Concentrations in oral fluid” value [2, 15] was “<LOQ”, the “Avarage Concentrations in oral fluid” value [2, 16] was “<LOQ” and the “Avarage Concentrations in oral fluid” value [2, 17] was “<LOQ”. For the same compound, the “Avarage Concentrations in oral fluid” value [2, 18] was “<LOQ”, the “Avarage Concentrations in oral fluid” value [2, 19] was “<LOQ” and the “Avarage Concentrations in oral fluid” value [2, 20] was “<LOQ”. For the same compound, the “Avarage Concentrations in oral fluid” value [2, 21] was “<LOQ”, the “Avarage Concentrations in oral fluid” value [2, 22] was “<LOQ” and the “Avarage Concentrations in oral fluid” value [2, 23] was “<LOQ”. For the same compound, the “Avarage Concentrations in oral fluid” value [2, 24] was “<LOQ”, the “Avarage Concentrations in oral fluid” value [2, 25] was “<LOQ” and the “Avarage Concentrations in oral fluid” value [2, 26] was “<LOQ”. The “Avarage Concentrations in oral fluid” value [2, 27] was “<LOQ”, the “Avarage Concentrations in oral fluid” value [2, 28] was “<LOQ” and the “Avarage Concentrations in oral fluid” value [2, 29] was “<LOQ”. The “Avarage Concentrations in oral fluid” value [2, 30] was “<LOQ” and the “distribution to oral fluid” value ([2]; conclusion in words) was “low penetration”.
In the case of `CN(C)[C@@H]1C(O)=C(C(N)=O)C(=O)[C@@]2(O)C(O)=C3C(=O)c4c(O)cccc4[C@@](C)(O)[C@H]3[C@H](O)[C@@H]12` [oxytetracycline], the “concentration in oral fluid at the withdrawal period” value ([3]; group where all pigs were treated) is listed as 30.8 µg/kg and the “concentration in oral fluid at the withdrawal period” value ([3]; group where the antibiotic was administered to half of the animals in one pen) is listed as 11.6 µg/kg.
For `CC1(C)S[C@@H]2[C@H](NC(=O)Cc3ccccc3)C(=O)N2[C@H]1C(=O)O` [PEN G, penicillin G], the concentration at 1 d [2, 5] was 93 ng/mL, the concentration at 2 d [2, 6] was 50 ± 15 ng/mL and the concentration at 3 d [2, 6] was 11 ± 4.6 ng/mL. The concentration at 4 d [2, 7] was 16 ± 5.4 ng/mL, the concentration at 5 d [2, 7] was 5.2 ± 1.1 ng/mL and the concentration at 6 d ([2]; male, (Landrace × Yorkshire) × Duroc crossbred (DanBred sows), pig, intramuscular, oral fluid, time 6 d, posttreatment, read-out: Avarage Concentrations in oral fluid) was 52 ± 13 ng/mL. For the same compound, the concentration at 7 d ([2]; male, (Landrace × Yorkshire) × Duroc crossbred (DanBred sows), pig, intramuscular, oral fluid, time 7 d, posttreatment, read-out: Avarage Concentrations in oral fluid) was 32 ± 7.2 ng/mL, the concentration at 8 d ([2]; male, (Landrace × Yorkshire) × Duroc crossbred (DanBred sows), pig, intramuscular, oral fluid, time 8 d, posttreatment, read-out: Avarage Concentrations in oral fluid) was 6 ± 1.2 ng/mL and the “concentration in oral fluid at withdrawal period” value ([2]; oral fluid) was “below the limit of quantification”. For the same compound, the “time for which the analyte was present / quantified in oral fluid” value ([2]; oral fluid) was 8 days, the “Avarage Concentrations in oral fluid” value [2, 8] was 93 ± 21 µg/L and the “Avarage Concentrations in oral fluid” value [2, 9] was “<LOQ *”. The “Avarage Concentrations in oral fluid” value [2, 10] was “<LOQ”, the “Avarage Concentrations in oral fluid” value [2, 11] was “<LOQ” and the “Avarage Concentrations in oral fluid” value [2, 12] was “<LOQ”. For the same compound, the “Avarage Concentrations in oral fluid” value [2, 13] was “<LOQ”, the “Avarage Concentrations in oral fluid” value [2, 14] was “<LOQ” and the “Avarage Concentrations in oral fluid” value [2, 15] was “<LOQ”. The “Avarage Concentrations in oral fluid” value [2, 16] was “<LOQ”, the “Avarage Concentrations in oral fluid” value [2, 17] was “<LOQ” and the “Avarage Concentrations in oral fluid” value [2, 18] was “<LOQ”. The “Avarage Concentrations in oral fluid” value [2, 19] was “<LOQ”, the “Avarage Concentrations in oral fluid” value [2, 20] was “<LOQ” and the “Avarage Concentrations in oral fluid” value [2, 21] was “<LOQ”. The “Avarage Concentrations in oral fluid” value [2, 22] was “<LOQ”, the “Avarage Concentrations in oral fluid” value [2, 23] was “<LOQ” and the “Avarage Concentrations in oral fluid” value [2, 24] was “<LOQ”. For the same compound, the “Avarage Concentrations in oral fluid” value [2, 25] was “<LOQ”, the “Avarage Concentrations in oral fluid” value [2, 26] was “<LOQ” and the “Avarage Concentrations in oral fluid” value [2, 27] was “<LOQ”. The “Avarage Concentrations in oral fluid” value [2, 28] was “<LOQ”, the “Avarage Concentrations in oral fluid” value [2, 29] was “<LOQ” and the “Avarage Concentrations in oral fluid” value [2, 30] was “<LOQ”. The pKa [4] was 2.7.
